Test results from patent US20230365566A1, “HETEROCYCLIC AMIDES AND THEIR USE FOR MODULATING SPLICING” (REMIX THERAPEUTICS INC., priority 2020, published 2023).
Where a name gives a salt, the structure may show the parent alone.

Tests used:
Format in all cases: cell-based
[1] = test system: HTT mRNA alternative junction (AJ); assay: Splicing RT-qPCR assay, increase of HTT alternative junction (AJ) mRNA; conditions: A673 or K562 cells, 24 hours compound treatment, concentration having 50% response in AJ increase
Method: (§1) Compounds described herein were used to modulate RNA transcript abundance in cells. The expression of a target mRNA was measured by detecting the formation of an exon-exon junction in the canonical transcript (CJ). A compound mediated exon-inclusion event was detected by observing an increase in formation of a new junction with an alternative exon (AJ). Real-time qPCR assays were used to detect these splicing switches and interrogate the potency of various compounds towards different target genes. A high-throughput real time quantitative PCR (RT-qPCR) assay was developed to measure these two isoforms of the mRNA (CJ and AJ) for an exemplary gene, HTT, together with a control housekeeping gene, GAPDH or GUSB or PPIA, used for normalization. Briefly, the A673 or K562 cell line was treated with various compounds described herein (e.g., compounds of Formula (I)). After treatment, the levels of the HTT mRNA targets were determined from each sample of cell lysate by cDNA synthesis followed by qPCR.
(§2) The A673 cell line was cultured in DMEM with 10% FBS. Cells were diluted with full growth media and plated in a 96-well plate (15,000 cells in 100 ul media per well). The plate was incubated at 37° C. with 5% CO2 for 24 hours to allow cells to adhere. An 11-point 3-fold serial dilution of the compounds was made in DMSO then diluted in media in an intermediate plate. Compounds were transferred from the intermediate plate to the cell plate with the top dose at a final concentration of 10 uM in the well. Final DMSO concentration was kept at or below 0.25%. The cell plate was returned to the incubator at 37° C. with 5% CO2 for an additional 24 hours.
(§3) The K562 cell line was cultured in IMDM with 10% FBS. For K562, cells were diluted with full growth media and plated in either a 96-well plate (50,000 cells in 50 uL media per well) or a 384-well plate (8,000-40,000 cells in 45 uL media per well). An 11-point 3-fold serial dilution of the compounds were made in DMSO then diluted in media in an intermediate plate. Compound was transferred from the intermediate plate to the cell plate with the top dose at a final concentration of 10 uM in the well. Final DMSO concentration was kept at or below 0.25%. Final volume was 100 uL for 96-well plate and 50 uL for 384-well plate. The cell plate was then placed in an incubator at 37° C. with 5% CO2 for 24 hours.
(§4) The cells were then gently washed with 50 uL-100 uL cold PBS before proceeding to addition of lysis buffer. 30 uL-50 uL of room temperature lysis buffer with DNAse I (and optionally RNAsin) was added to each well. Cells were shaken/mixed thoroughly at room temperature for 5-10 minutes for lysis to take place and then 3 uL-5 uL of room temperature stop solution was added and wells were shaken/mixed again. After 2-5 minutes, the cell lysate plate was transferred to ice for RT-qPCR reaction setup. The lysates could also be frozen at −80° C. for later use.
(§5) In some cases, a direct lysis buffer was used. An appropriate volume of 3× lysis buffer (10 mM Tris, 150 mM NaCl, 1.5%-2.5% Igepal and 0.1-1 U/uL RNAsin, pH 7.4) was directly added to either K562 or A673 cells in media and mixed by pipetting 3 times. The plates were then incubated at room temperature with shaking/rocking for 20-50 minutes to allow for lysis to take place. After this time, the cell lysate plate was transferred to ice to set up for the RT-qPCR reactions. The lysates could also be frozen at −80° C. for later use.
(§6) To set up 10 uL RT-qPCR reactions, cell lysates were transferred to 384-well qPCR plates containing the master mix according to the table below. The plates were sealed, gently vortexed, and spun down before the run. The volumes were adjusted accordingly in some instances where the reaction was carried in 20 uL. The table below summarizes the components of the RT-qPCR reactions:
(§7) The RT-qPCR reaction was performed using a QuantStudio (ThermoFisher) under the following fast cycling conditions. […]

[2] = test system: HTT mRNA canonical junction (CJ); assay: Splicing RT-qPCR assay, decrease of HTT canonical junction (CJ) mRNA; conditions: A673 or K562 cells, 24 hours compound treatment, concentration having 50% response in CJ decrease
Method: as §1, §2, §3, §4, §5, §6, §7

[3] = test system: HTT CJ mRNA; assay: Gene panel canonical junction qPCR assay, HTT; conditions: protocol of Example 42, read-out: HTT IC50 (decrease in CJ mRNA levels)
Method: as §1, §2, §3
(§8) The data analysis was performed by first determining the ACt vs the housekeeper gene. This ACt was then normalized against the DMSO control (AACt) and converted to RQ (relative quantification) using the 2^(−ΔΔCt) equation. The RQ were then converted to a percentage response by arbitrarily setting an assay window of 3.5 ΔCt for HTT-CJ and an assay window of 9 ΔCt for HTT-AJ. […] The percentage response was then fitted to the 4 parametric logistic equation to evaluate the concentration dependence of compound treatment. The increase in AJ mRNA is reported as AC50 (compound concentration having 50% response in AJ increase) while the decrease in CJ mRNA levels is reported as IC50 (compound concentration having 50% response in CJ decrease).
(§9) Additional studies were carried out for a larger panel of genes using the protocol provided above. The junction between flanking upstream and downstream exons was used to design canonical junction qPCR assays. At least one of the forward primer, reverse primer or the CY5-labeled 5′ nuclease probe (with 3′ quencher such as ZEN/Iowa Black FQ) was designed to overlap with the exon junction to capture the CJ mRNA transcript. BLAST was used to confirm the specificity of the probeset and parameters such as melting temperature, GC content, amplicon size, and primer dimer formation are considered during their design. Data for the decrease in CJ mRNA levels for three exemplary genes (HTT, SMN2, and Target C) analyzed in this panel are reported as IC50 (compound concentration having 50% response in CJ decrease).

[4] = test system: Target C CJ mRNA; assay: Gene panel canonical junction qPCR assay, Target C; conditions: protocol of Example 42, read-out: Target C IC50 (decrease in CJ mRNA levels)
Method: as §1, §2, §3, §8, §9

[5] = test system: SMN2 CJ mRNA; assay: Gene panel canonical junction qPCR assay, SMN2; conditions: protocol of Example 42, read-out: SMN2 IC50 (decrease in CJ mRNA levels)
Method: as §1, §2, §3, §8, §9

| IC50 [3] [nM] | IC50 [4] [nM] | IC50 [5] [nM] | SMILES | AC50 [1] [nM] | AC50 [2] [nM] |
| --- | --- | --- | --- | --- | --- |
| 1000 to 10000 | 100 to 1000 | < 100 | Cc1cn2cc(NC(=O)c3ccc(N4CCNCC4)c4cc(C)oc34)cc(F)c2n1 [Compound 142, N-[8-fluoro-2-methylimidazo[1,2-a]pyridin-6-yl]-2-methyl-4-(piperazin-1-yl)-1-benzofuran-7-carboxamide] | 1000 to 10000 | 1000 to 10000 |
| 100 to 1000 | < 100 | < 100 | Cc1cn2cc(NC(=O)c3ccc(N4CCNCC4)c4cn(C)nc34)cc(F)c2n1 [Compound 143, N-[8-fluoro-2-methylimidazo[1,2-a]pyridin-6-yl]-2-methyl-4-(piperazin-1-yl) indazole-7-carboxamide] | 100 to 1000 | 100 to 1000 |
| 1000 to 10000 | 100 to 1000 | < 100 | Cc1cn2cc(NC(=O)c3ccc(C4CCNCC4)c4cc(C)oc34)cc(F)c2n1 [Compound 145, N-[8-fluoro-2-methylimidazo[1,2-a]pyridin-6-yl]-2-methyl-4-(piperidin-4-yl)-1-benzofuran-7-carboxamide] | 1000 to 10000 | 1000 to 10000 |
| 1000 to 10000 | 1000 to 10000 | 100 to 1000 | Cc1cn2nc(NC(=O)c3ccc(N4CCNCC4)c4cc(C)oc34)cc(C)c2n1 [Compound 148, N-[2,8-dimethylimidazo[1,2-b]pyridazin-6-yl]-2-methyl-4-(piperazin-1-yl)-1-benzofuran-7-carboxamide] | 1000 to 10000 | 1000 to 10000 |
| 1000 to 10000 | > 10000 | < 100 | Cc1cn2cc(NC(=O)c3ccc(C4CCNCC4)c4ccoc34)cc(F)c2n1 [Compound 149, N-[8-fluoro-2-methylimidazo[1,2-a]pyridin-6-yl]-4-(piperidin-4-yl)-1-benzofuran-7-carboxamide hydrochloride] | 1000 to 10000 | 1000 to 10000 |
| 100 to 1000 | 100 to 1000 | < 100 | Cc1cn2cc(NC(=O)c3ccc(C4CCNCC4)c4oc(C)nc34)cc(F)c2n1 [Compound 187, N-[8-fluoro-2-methylimidazo[1,2-a]pyridin-6-yl]-2-methyl-7-(piperidin-4-yl)-1,3-benzoxazole-4-carboxamide] | 100 to 1000 | 100 to 1000 |
| > 10000 | 1000 to 10000 | 100 to 1000 | Cc1cn2cc(NC(=O)c3ccc(C4CCNCC4)c4c3OCC4)cc(F)c2n1 [Compound 188, N-[8-fluoro-2-methylimidazo[1,2-a]pyridin-6-yl]-4-(piperidin-4-yl)-2,3-dihydro-1-benzofuran-7-carboxamide] | > 10000 | > 10000 |
| 1000 to 10000 | 1000 to 10000 | < 100 | CCC1CN(c2ccc(C(=O)Nc3cc(F)c4nc(C)cn4c3)c3oc(C)cc23)CCN1 (stereo not drawn) [Compound 192] | – | – |
| > 10000 | > 10000 | < 100 | Cc1cn2cc(NC(=O)c3ccc(N4CC(C)(C)NC(C)(C)C4)c4cc(C)oc34)cc(F)c2n1 [Compound 195] | – | – |

The next lines start with the compound.

| SMILES | IC50 [3] [nM] | IC50 [4] [nM] | IC50 [5] [nM] | AC50 [1] [nM] | AC50 [2] [nM] |
| --- | --- | --- | --- | --- | --- |
| Cc1cn2nc(NC(=O)c3ccc(C4CCNCC4)c4cc(C)oc34)cc(C)c2n1 [Compound 118, N-[2,8-dimethylimidazo[1,2-b]pyridazin-6-yl]-2-methyl-4-(piperidin-4-yl)-1-benzofuran-7-carboxamide] | 1000 to 10000 | > 10000 | – | 1000 to 10000 | 1000 to 10000 |
| Cc1cn2nc(NC(=O)c3ccc(C4CCNCC4)c4ccoc34)cc(C)c2n1 [Compound 119, N-[2,8-dimethylimidazo[1,2-b]pyridazin-6-yl]-4-(piperidin-4-yl)-1-benzofuran-7-carboxamide] | 1000 to 10000 | > 10000 | 100 to 1000 | > 10000 | 1000 to 10000 |
| Cc1cn2cc(NC(=O)c3ccc(N4CCNCC4)c4nc(C)oc34)cc(F)c2n1 [Compound 140] | 1000 to 10000 | – | 100 to 1000 | 1000 to 10000 | 1000 to 10000 |
| Cc1cn2cc(NC(=O)c3ccc(N4CCNCC4)c4oc(C)nc34)cc(F)c2n1 [Compound 141, N-[8-fluoro-2-methylimidazo[1,2-a]pyridin-6-yl]-2-methyl-7-(piperazin-1-yl)-1,3-benzoxazole-4-carboxamide hydrochloride] | < 100 | 100 to 1000 | < 100 | < 100 | < 100 |
| Cc1cn2nc(-c3ccc(C(=O)NC4CCNCC4)c4oc(C)cc34)cc(C)c2n1 [Compound 282, 4-{2,8-dimethylimidazo[1,2-b]pyridazin-6-yl}-2-methyl-N-(piperidin-4-yl)-1-benzofuran-7-carboxamide] | – | – | – | 1000 to 10000 | 1000 to 10000 |
| Cc1cn2cc(-c3ccc(C(=O)NC4CCNCC4)c4oc(C)cc34)cc(F)c2n1 [Compound 283, 4-{8-fluoro-2-methylimidazo[1,2-a]pyridin-6-yl}-2-methyl-N-(piperidin-4-yl)-1-benzofuran-7-carboxamide] | – | – | – | > 10000 | 1000 to 10000 |
| CCn1cc2c(N3CCNCC3)ccc(C(=O)Nc3cc(Cl)c4nc(C)cn4c3)c2n1 [Compound 284, N-{8-chloro-2-methylimidazo[1,2-a]pyridin-6-yl}-2-ethyl-4-(piperazin-1-yl)indazole-7-carboxamide] | – | – | – | > 10000 | 1000 to 10000 |
| Cc1cn2cc(NC(=O)c3ccc(C4CCNCC4)c4cn(C)nc34)cc(Cl)c2n1 [Compound 285, N-{8-chloro-2-methylimidazo[1,2-a]pyridin-6-yl}-2-methyl-4-(piperidin-4-yl) indazole-7-carboxamide] | – | – | – | 100 to 1000 | 100 to 1000 |
| Cc1cn2cc(NC(=O)c3ccc(N4CCNCC4)c4c[nH]nc34)cc(Cl)c2n1 [Compound 286, N-{8-chloro-2-methylimidazo[1,2-a]pyridin-6-yl}-4-(piperazin-1-yl)-2H-indazole-7-carboxamide] | – | – | – | > 10000 | > 10000 |
